Measured values: ChEMBL document CHEMBL4184188, “Characterization of tyrosinase inhibitory constituents from the aerial parts of Humulus japonicus using LC-MS/MS coupled online assay” (Bioorg Med Chem, 2018)
Calls of active or inactive are those of the source. The calls are words filed in the database; no cut-off is given here.

Each compound was assayed against T1, Tyrosinase (Agaricus bisporus) (UniProt O42713) (assay: Inhibition of mushroom tyrosinase using tyrosine as substrate pretreated for 5 mins followed by substrate addition measured after 20 mins by ELISA).
T1 sequence (whole entry): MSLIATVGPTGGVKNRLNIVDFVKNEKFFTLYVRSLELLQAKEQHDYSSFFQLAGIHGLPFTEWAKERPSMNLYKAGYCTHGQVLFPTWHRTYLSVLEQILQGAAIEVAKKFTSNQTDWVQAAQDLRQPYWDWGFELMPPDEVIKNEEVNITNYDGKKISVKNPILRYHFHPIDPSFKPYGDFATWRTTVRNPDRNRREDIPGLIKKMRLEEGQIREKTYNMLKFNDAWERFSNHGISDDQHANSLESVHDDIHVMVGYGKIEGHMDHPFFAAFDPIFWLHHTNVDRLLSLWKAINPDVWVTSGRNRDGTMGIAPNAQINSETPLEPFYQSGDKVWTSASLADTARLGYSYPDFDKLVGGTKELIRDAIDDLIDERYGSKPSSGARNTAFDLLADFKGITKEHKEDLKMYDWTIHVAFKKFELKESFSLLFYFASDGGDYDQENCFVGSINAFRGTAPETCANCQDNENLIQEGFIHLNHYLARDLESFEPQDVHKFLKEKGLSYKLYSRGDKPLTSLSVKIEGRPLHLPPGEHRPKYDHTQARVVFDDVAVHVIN

Compound | inhibition
O=c1cc(-c2ccc(O)cc2)oc2c([C@@H]3O[C@H](CO)[C@@H](O)[C@H](O)[C@H]3O)c(O)cc(O)c12 | inactive
O=C(O)c1ccc(O)cc1 | Active
COc1ccc(C(C)=O)cc1OC | inactive
CC(=O)/C=C/[C@@]1(O)C(C)=CC(=O)CC1(C)C | inactive
CCOC(C)=O | Active
CC(=O)/C=C/[C@@]12O[C@]1(C)C[C@@H](O)CC2(C)C | inactive
O=c1cc(-c2ccc(O)cc2)oc2cc(O)cc(O)c12 | Active
CC1(C)C[C@@H](O)C[C@]2(C)OC(=O)C=C12 | inactive
O=c1cc[nH]c(=O)[nH]1 | Active
CC1=CC(=O)CC(C)(C)/C1=C/C[C@@H](C)O | inactive
O=C(O)c1ccccc1 | Active
NC(=O)/C=C/c1ccc(O)cc1 | Active
CC(=O)/C=C/[C@H]1C(C)=C[C@H](O)CC1(C)C | inactive
CC1(C)C[C@@H](O)C[C@@]2(C)OC(=O)C=C12 | inactive
C/C(=C\COC(=O)c1ccccc1)CO[C@@H]1O[C@H](CO)[C@@H](O)[C@H](O)[C@H]1O | Active
O=Cc1c[nH]c2ccccc12 | Active
O=C(/C=C\c1ccc(O)cc1)NCCc1ccc(O)cc1 | Active

Compound | inhibition
COc1ccc(C=O)cc1O | inactive
COC(=O)c1c[nH]c2ccccc12 | Active
C/C(=C\COC(=O)c1ccccc1O)CO[C@@H]1O[C@H](CO)[C@@H](O)[C@H](O)[C@H]1O | Active
COc1cc2ccc(=O)oc2cc1O | Active
C=CCc1ccc(O[C@@H]2O[C@H](CO)[C@@H](O)[C@H](O)[C@H]2O)c(OC)c1 | inactive
NC(=O)c1cccnc1 | Active
O=C(O)c1c[nH]c2ccccc12 | Active
COc1cc(/C=C\C(=O)NCCc2ccc(O)cc2)ccc1O | inactive
O=C(/C=C/c1ccc(O)cc1)NCCc1ccc(O)cc1 | Active
O=Cc1ccccc1 | Active
COc1cc2oc(=O)ccc2cc1O | Active
CC(=O)C=C=C1C(C)(C)C[C@H](O)C[C@@]1(C)O | inactive
O=c1cc(-c2ccc(O)c(O)c2)oc2cc(O)cc(O)c12 | Active
COc1cc(C(=O)O)ccc1O | inactive
CC1=CC(=O)CC(C)(C)[C@@]1(O)CC[C@H](C)O | inactive
COc1cc(/C=C/C(=O)NCCc2ccc(O)cc2)ccc1O | inactive
COc1cc(C(C)=O)ccc1O | inactive

What follows are compounds tested against T1, Tyrosinase (Agaricus bisporus) (assay: Inhibition of mushroom tyrosinase at 100 uM using tyrosine as substrate pretreated for 5 mins followed by substrate addition measured after 20 mins by ELISA relative to control).

Compound | inhibition [%]
O=Cc1c[nH]c2ccccc12 | > 30
C/C(=C\COC(=O)c1ccccc1O)CO[C@@H]1O[C@H](CO)[C@@H](O)[C@H](O)[C@H]1O | > 30
COc1cc2ccc(=O)oc2cc1O | > 30
COc1cc2oc(=O)ccc2cc1O | > 30
